Data as given in patent US6342515B1, “Remedy for neurodegenerative diseases” (Dainippon Pharmaceutical Co., Ltd., priority 1997, dated 2002).
Marks after values point to notes of the source that are not given here.

Legend:
C57 black male mice [1] = assay: Preparation of animal model for Parkinson's disease: striatal monoamine neurotransmitters and metabolites after MPTP; assay type: in vivo, mouse; details: MPTP hydrochloride 30 mg/kg ip once a day for 8 days
Protocol: (§1) In each experiment, the contents of monoamine neurotransmitters and metabolites thereof in the striatum were measured by high performance liquid chromatography (HPLC) method. HPLC was carried out using a system consisting of a pump (L-6000, manufactured by Hitachi, Ltd., Japan), an autoinjector, a column (Cosmosil 5C18-A, manufactured by Nacalai Tesque, Inc., Japan; 4.6Ø×250 mm), and an electrochemical detector (ECD-100, manufactured by Eicom Corporation, Japan) under the following conditions.
(§2) C57 black male mice (11-week-old) were used in the experiment. MPTP hydrochloride was dissolved in a physiological saline solution in a concentration of 3 mg/ml, and the resulting solution was intraperitoneally injected to the mice in a volume of 0.1 ml per 10 g of body weight, i.e., at a dose of 30 mg/kg, once a day for 8 days repetitively. […]
(§3) The striatum excised was homogenized with a 50-fold volume of 0.1 N formic acid:acetone (15:85) containing an internal standard substance (5-hydroxytriptophol; 20 ng/ml), and the mixture was centrifuged under cooling. A fixed amount of the supernatant was collected and evaporated to dryness under stream of nitrogen gas. Then, the resultant was dissolved in a 0.01 N acetic acid and centrifuged, and then the contents of various monoamine neurotransmitters and metabolites thereof in the supernatant were measured by HPLC being equipped with an electrochemical detector.
The changes in the contents of various neurotransmitters and metabolites thereof 24 hours after the last MPTP administration are shown in FIG. 1. The number of animals in each group is 8, and the perpendicular lines in the figures represent standard errors, and the mark ** means that there is a significant difference from the value of the control group (the group treated with a physiological saline solution) with p<0.01.

C57 black male mice [2] = assay: Inhibitory effect on MPTP-induced dopaminergic neurodegeneration (striatal DA and DOPAC by HPLC); assay type: in vivo, mouse; details: for Inhibitory Rate (%) DA / Inhibitory Rate (%) DOPAC / DA (ng/g tissue) / DOPAC (ng/g tissue): striatum, 24 hours after last MPTP; for DA (ng/g tissue) / DOPAC (ng/g tissue): mean ± standard error; for inhibitory effect on the MPTP-induced reduction in the contents of dopamine and DOPAC in the striatum: po
Protocol: as §1
In addition, the statistical analysis was carried out by Dunnett's multiple comparison test.
as §2, §3
MPTP hydrochloride was intraperitoneally administered to C57 black male mice (11-week-old) at a dose of 30 mg/kg once a day for 8 days repetitively in the same manner as in Experiment 1. The test drugs, i.e., antiepileptic agents, were suspended in a 0.5% aqueous tragacanth solution, and the resultant was orally administered to the mice in a volume of 0.1 ml per 10 g of body weight 30 minutes prior to the MPTP administration for 8 days. […] The contents of dopamine and a metabolite thereof in the striatum were measured in the same manner as in Experiment 1. […] The dosages for each administration of various antiepileptic agents are shown below. […] Forsch. (Drug Res.), 30, 477 (1980) for other antiepileptic agents were employed, respectively.
The inhibitory rate was calculated from the values in the normal animal group, the vehicle-treated group and the test drug-treated group. The values in Table represent a mean value ± a standard error, and the marks * and ** mean that there is a significant difference from the value of the vehicle-treated group with p<0.05 and p<0.01, respectively.
The perpendicular lines in the figures represent standard errors, and the marks * and ** mean that there is a significant difference from the value of the vehicle-treated group with p<0.05 and p<0.01, respectively.

C57 black mice = details: MPTP hydrochloride 15 mg/kg s.c. once; cited from earlier work
[3] = 24 hours after last administration (FIG. 1)
[4] = 14-days group (14 days after the last MPTP administration), in words (FIG. 2)
[5] = 24-hours group, in words (Table 1)
[6] = 100 mg/kg po for 8 days, 100 mg/kg
[7] = 100 mg/kg po for 8 days, listed as zonisamide, 100 mg/kg

SMILES: CN1CC=C(c2ccccc2)CC1 [MPTP, 1-methyl-4-phenyl-1,2,3,6-tetrahydropyridine]
- contents of dopamine (DA), homovanillic acid (HVA) and DOPAC in the striatum (C57 black male mice [1]; [3]): significantly reduced
- contents of noradrenaline (NA), serotonin (5HT), MOPEG and 5HIAA in the striatum (C57 black male mice [1]; [3]): never affected
- reduction in the contents of dopamine and metabolites thereof in the striatum (C57 black male mice [1]; 14 days after last administration (FIG. 2)): irreversible

SMILES: Nc1nnc(-c2cccc(Cl)c2Cl)c(N)n1 [LTG, 3,5-diamino-6-(2,3-dichlorophenyl)-1,2,4-triazine]
- Inhibitory Rate (%) DA (C57 black male mice [2]; 30 mg/kg po for 8 days): 51.6%
- Inhibitory Rate (%) DOPAC (C57 black male mice [2]; 30 mg/kg po for 8 days): 34.1%
- DA (ng/g tissue) (C57 black male mice [2]; 30 mg/kg po for 8 days): 4844 ± 676** ng/g tissue
- DOPAC (ng/g tissue) (C57 black male mice [2]; 30 mg/kg po for 8 days): 273 ± 31** ng/g tissue
- inhibitory effect on dopamine depletion induced by MPTP (C57 black mice): show an inhibitory effect

SMILES: CCC1(c2ccccc2)C(=O)NC(=O)NC1=O [PB, Phenobarbital]
- Inhibitory Rate (%) DA (C57 black male mice [2]; 40 mg/kg po for 8 days): 23.5%
- Inhibitory Rate (%) DOPAC (C57 black male mice [2]; 40 mg/kg po for 8 days): 16.3%
- DA (ng/g tissue) (C57 black male mice [2]; 40 mg/kg po for 8 days): 3310 ± 544 ng/g tissue
- DOPAC (ng/g tissue) (C57 black male mice [2]; 40 mg/kg po for 8 days): 200 ± 32 ng/g tissue

SMILES: CC(=O)Nc1nnc(S(N)(=O)=O)s1 [AZA, Acetazolamide]
- Inhibitory Rate (%) DA (C57 black male mice [2]; 100 mg/kg po for 8 days): −4.1%
- Inhibitory Rate (%) DOPAC (C57 black male mice [2]; 100 mg/kg po for 8 days): 1.2%
- DA (ng/g tissue) (C57 black male mice [2]; 100 mg/kg po for 8 days): 1803 ± 428 ng/g tissue
- DOPAC (ng/g tissue) (C57 black male mice [2]; 100 mg/kg po for 8 days): 138 ± 23 ng/g tissue

SMILES: NC(=O)N1c2ccccc2C=Cc2ccccc21 [CBZ, Carbamazepine]
- inhibitory effect on the MPTP-induced reduction in the contents of dopamine and DOPAC in the striatum (C57 black male mice [2]; [4]): did not show any significant inhibitory effect
- inhibitory effect on the MPTP-induced reduction in the contents of dopamine and DOPAC in the striatum (C57 black male mice [2]; [5]): did not show any significant inhibitory effect
- Inhibitory Rate (%) DA (C57 black male mice [2]; 20 mg/kg po for 8 days): 25.0%
- DA (ng/g tissue) (C57 black male mice [2]; 20 mg/kg po for 8 days): 3087 ± 453 ng/g tissue
- DOPAC (ng/g tissue) (C57 black male mice [2]; 20 mg/kg po for 8 days): 251 ± 36 ng/g tissue
- Inhibitory Rate (%) DA (C57 black male mice [2]; 60 mg/kg po for 8 days): 20.8%
- Inhibitory Rate (%) DOPAC (C57 black male mice [2]; 60 mg/kg po for 8 days): 23.0%
- DA (ng/g tissue) (C57 black male mice [2]; 60 mg/kg po for 8 days): 2894 ± 750 ng/g tissue
- DOPAC (ng/g tissue) (C57 black male mice [2]; 60 mg/kg po for 8 days): 202 ± 52 ng/g tissue
- inhibitory effect on dopamine depletion induced by MPTP (C57 black mice): does not show such effect

SMILES: NS(=O)(=O)Cc1noc2ccccc12 [ZNS, 3-sulfamoylmethyl-1,2-benzisoxazole]
- inhibitory effect on the MPTP-induced reduction in the contents of dopamine and DOPAC in the striatum (C57 black male mice [2]; [4]): dose-dependent inhibitory effect
- inhibitory effect on the MPTP-induced reduction in the contents of dopamine and DOPAC in the striatum (C57 black male mice [2]; [5]): dose-dependent inhibitory effect
- Inhibitory Rate (%) DA (C57 black male mice [2]; 10 mg/kg po for 8 days): 22.3%
- Inhibitory Rate (%) DOPAC (C57 black male mice [2]; 10 mg/kg po for 8 days): 29.8%
- DA (ng/g tissue) (C57 black male mice [2]; 10 mg/kg po for 8 days): 3797 ± 201* ng/g tissue
- DOPAC (ng/g tissue) (C57 black male mice [2]; 10 mg/kg po for 8 days): 221 ± 11* ng/g tissue
- Inhibitory Rate (%) DA (C57 black male mice [2]; 30 mg/kg po for 8 days): 80.3%
- Inhibitory Rate (%) DOPAC (C57 black male mice [2]; 30 mg/kg po for 8 days): 82.1%
- DA (ng/g tissue) (C57 black male mice [2]; 30 mg/kg po for 8 days): 7373 ± 685** ng/g tissue
- DOPAC (ng/g tissue) (C57 black male mice [2]; 30 mg/kg po for 8 days): 370 ± 27** ng/g tissue
- Inhibitory Rate (%) DA (C57 black male mice [2]; [6]): 97.2%
- Inhibitory Rate (%) DOPAC (C57 black male mice [2]; [6]): 109.1%
- Inhibitory Rate (%) DA (C57 black male mice [2]; [7]): ~100%
- Inhibitory Rate (%) DOPAC (C57 black male mice [2]; [7]): ~100%
- DA (ng/g tissue) (C57 black male mice [2]; 100 mg/kg po for 8 days): 8434 ± 336** ng/g tissue
- DOPAC (ng/g tissue) (C57 black male mice [2]; 100 mg/kg po for 8 days): 447 ± 24** ng/g tissue

SMILES: CCC1(C)CC(=O)NC1=O (centres unmarked) [ESM, Ethosuximide]
- Inhibitory Rate (%) DA (C57 black male mice [2]; 600 mg/kg po for 8 days): −18.7%
- Inhibitory Rate (%) DOPAC (C57 black male mice [2]; 600 mg/kg po for 8 days): −12.9%
- DA (ng/g tissue) (C57 black male mice [2]; 600 mg/kg po for 8 days): 1008 ± 182 ng/g tissue
- DOPAC (ng/g tissue) (C57 black male mice [2]; 600 mg/kg po for 8 days): 80 ± 10 ng/g tissue

SMILES: CCCC(CCC)C(=O)[O-].[Na+] [VPA, Sodium valproate]
- Inhibitory Rate (%) DA (C57 black male mice [2]; 800 mg/kg po for 8 days): 17.5%
- Inhibitory Rate (%) DOPAC (C57 black male mice [2]; 800 mg/kg po for 8 days): 13.2%
- DA (ng/g tissue) (C57 black male mice [2]; 800 mg/kg po for 8 days): 2984 ± 468 ng/g tissue
- DOPAC (ng/g tissue) (C57 black male mice [2]; 800 mg/kg po for 8 days): 187 ± 29 ng/g tissue

SMILES: O=C1NC(=O)C(c2ccccc2)(c2ccccc2)N1 [PHT, Phenytoin]
- Inhibitory Rate (%) DA (C57 black male mice [2]; 30 mg/kg po for 8 days): 37.4%
- Inhibitory Rate (%) DOPAC (C57 black male mice [2]; 30 mg/kg po for 8 days): 30.2%
- DA (ng/g tissue) (C57 black male mice [2]; 30 mg/kg po for 8 days): 4073 ± 454* ng/g tissue
- DOPAC (ng/g tissue) (C57 black male mice [2]; 30 mg/kg po for 8 days): 257 ± 30* ng/g tissue
- inhibitory effect on dopamine depletion induced by MPTP (C57 black mice): show an inhibitory effect

SMILES: CN1C(=O)CN=C(c2ccccc2)c2cc(Cl)ccc21 [DZP, Diazepam]
- Inhibitory Rate (%) DA (C57 black male mice [2]; 5 mg/kg po for 8 days): 24.3%
- Inhibitory Rate (%) DOPAC (C57 black male mice [2]; 5 mg/kg po for 8 days): 18.3%
- DA (ng/g tissue) (C57 black male mice [2]; 5 mg/kg po for 8 days): 3356 ± 451 ng/g tissue
- DOPAC (ng/g tissue) (C57 black male mice [2]; 5 mg/kg po for 8 days): 208 ± 28 ng/g tissue
